The target of this experiment is T1, DENVC (dengue virus capsid protein) (Dengue virus 2 Thailand/NGS-C/1944, UniProt P14340).
T1 construct: mature capsid protein C from the N-terminus of the dengue virus genome polyprotein; pET3a, E. coli BL21(DE3)pLysS, heparin column; symmetric homodimer; printed residues reach R100
As to the kind of experiment: intrinsic tryptophan fluorescence titration, shift of emission maximum. The class given is binding.

Here are results for three compounds from paper PMC8667904, “Searching for drug leads targeted to the hydrophobic cleft of dengue virus capsid protein” (Journal of Enzyme Inhibition and Medicinal Chemistry, 2021).

T1 sequence (P14340 1-100): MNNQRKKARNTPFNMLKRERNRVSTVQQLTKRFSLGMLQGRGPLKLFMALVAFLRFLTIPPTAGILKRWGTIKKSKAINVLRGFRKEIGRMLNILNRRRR

Turning to `N=C(N)NN=Cc1cc(Cl)ccc1O` [compound 1, 5-chloro-salicylaldehyde-guanylhydrazone], the Kd was 18 ± 4 µM. The value for `N=C(N)N/N=C/c1ccc(Br)s1` [compound 4, 5-bromo-thiophene-2-guanylhydrazone] was 20 ± 7 µM. The value for `O/N=C/c1cc(Cl)ccc1O` [compound 12, 2-hydroxy-5-chloro-benzyloxime] was 23 ± 8 µM.
